Non-standard residues stand in square brackets, D forms with d. Residues, ends and D or L forms follow the SMILES beside them. *: point of attachment. NMeI = CC[C@H](C)[C@H](NC)C(=O)O; dNMeF = CN[C@H](Cc1ccccc1)C(=O)O; X1 = C(=C/c1c[nH]c2ccccc12)/N*; NMeV = CN[C@H](C(=O)O)C(C)C; NMeA = CN[C@@H](C)C(=O)O
Test system: Plasmodium falciparum liver-stage parasites
Assay: microbe, parasite or virus in culture
Assay type: cell-based
Conditions: for inhibition of P. falciparum liver-stage development (in words): in vitro liver model, drug treatment at 10 μM
Protocol: Bioactivity of friomaramide was evaluated for inhibition of Plasmodium falciparum liver-stage parasites and primary human hepatocyte (PHH) toxicity using an in vitro liver model. In brief, cryopreserved PHHs were seeded at 1.8×10^4 cells per well in a 384-well microplate. Freshly isolated P. falciparum sporozoites were inoculated at 2.0×10^4 per well with subsequent drug treatment at 10 μM. Media was changed daily with fresh addition of drug for 3 days until experiment fixation on day 6.

In the case of C[C@H]1[C@@H](O)O[C@@H]2O[C@@]3(C)CC[C@H]4[C@H](C)CC[C@@H]1[C@@]24OO3 [DHA], the “inhibition of P. falciparum liver-stage development (in words)” value is reported as “does not inhibit”.
With CC[C@H](C)[C@@H](C(=O)N/C=C\c1c[nH]c2ccccc12)N(C)C(=O)[C@H]([C@@H](C)CC)N(C)C(=O)[C@H](C)N(C)C(=O)[C@H](C(C)C)N(C)C(=O)[C@@H](Cc1ccccc1)N(C)C(C)=O [friomaramide] (Ac-[dNMeF][NMeV][NMeA][NMeI][NMeI]-X1) the “inhibition of P. falciparum liver-stage development (in words)” value was “block sporozoite invasion and subsequent liver-stage parasite development”.
In the case of COc1cc(NC(C)CCCN)c2ncccc2c1 (stereo not drawn) [primaquine], the inhibition at 10 µM (Plasmodium falciparum, Hepatocyte, read-out: inhibition of P. falciparum liver-stage growth) is reported as greater than 90%.
